How the values were obtained:
[1] = biological target: T1, human calcium receptor (Homo sapiens, UniProt P41180); assay: Activity on calcium receptors: fluo-3 fluorescence in HEK293 cells transfected with human calcium receptor gene; type: cell-based; details: HEK293 cells transfected with plasmid pHuPCaR4.0 (human calcium receptor gene), loaded with fluo-3; 1 mM CaCl2, 1 mM MgCl2
T1 construct: expressed in transfected cells; host or cells: HEK293
T1 sequence (P41180 20-1078): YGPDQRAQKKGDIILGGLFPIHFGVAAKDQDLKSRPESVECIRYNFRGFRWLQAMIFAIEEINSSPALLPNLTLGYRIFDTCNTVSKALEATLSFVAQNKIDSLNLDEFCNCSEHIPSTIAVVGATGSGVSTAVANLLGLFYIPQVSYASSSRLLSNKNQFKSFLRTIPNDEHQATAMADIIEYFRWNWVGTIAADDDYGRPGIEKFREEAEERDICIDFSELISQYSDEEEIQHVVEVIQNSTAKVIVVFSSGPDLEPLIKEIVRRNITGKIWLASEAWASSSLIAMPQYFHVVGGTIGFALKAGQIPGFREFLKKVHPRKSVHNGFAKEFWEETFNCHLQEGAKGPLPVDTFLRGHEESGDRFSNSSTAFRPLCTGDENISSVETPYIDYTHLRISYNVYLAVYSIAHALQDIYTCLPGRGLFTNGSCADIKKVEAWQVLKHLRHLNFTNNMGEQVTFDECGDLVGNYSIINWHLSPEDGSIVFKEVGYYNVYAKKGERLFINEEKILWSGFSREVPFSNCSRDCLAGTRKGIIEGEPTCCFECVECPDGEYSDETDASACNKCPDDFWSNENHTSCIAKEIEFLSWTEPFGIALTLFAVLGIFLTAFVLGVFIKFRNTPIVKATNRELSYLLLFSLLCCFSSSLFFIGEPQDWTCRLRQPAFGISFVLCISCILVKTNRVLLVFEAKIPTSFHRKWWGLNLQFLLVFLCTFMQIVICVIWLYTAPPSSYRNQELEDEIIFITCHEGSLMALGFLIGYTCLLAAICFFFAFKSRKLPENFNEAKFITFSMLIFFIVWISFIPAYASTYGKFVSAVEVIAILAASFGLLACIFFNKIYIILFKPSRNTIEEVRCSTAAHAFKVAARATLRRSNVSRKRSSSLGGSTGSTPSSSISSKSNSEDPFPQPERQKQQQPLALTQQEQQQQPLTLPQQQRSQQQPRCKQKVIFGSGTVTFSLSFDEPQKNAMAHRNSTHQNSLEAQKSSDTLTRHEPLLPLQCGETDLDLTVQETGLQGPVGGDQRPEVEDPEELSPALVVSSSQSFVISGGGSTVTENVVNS
Method: The activities of the compounds of the present invention on calcium receptors were measured. The measurement was performed in accordance with the method described in Example 4 of Nemeth et al., PCT/US95/13704 (International Publication No. WO96/12697). In brief, HEK293 cells were transfected with a plasmid pHuPCaR4.0 containing a human calcium receptor gene and loaded with fluo-3. The loading was carried out by incubating the cells at 37° C. for 1 hour in Dulbecco's modified Eagle's medium which contained about 5 μM of fluo-3/AM and had been buffered with 20 mM HEPES. Next, the cells were rinsed with Hank's balanced salt solution which contained 1 mM CaCl2 and 1 mM MgCl2 and had been buffered with 20 mM HEPES. Then each test compound was added to the cells and the fluorescence was measured with the use of an excitation wavelength of 485 nm and an emission wavelength of 540 nm.

[2] = test system: normal male SD rats; assay: Plasma Ca^2+ level of rats after single oral administration; type: in vivo; details: rat, mean of six animals; for Plasma Ca^2+ (mmol/l) 1 hr: 1 hr after single oral dose 30 μmol/kg; for Plasma Ca^2+ (mmol/l) 2 hr: 2 hr after single oral dose 30 μmol/kg; for Plasma Ca^2+ (mmol/l) 4 hr: 4 hr after single oral dose 30 μmol/kg; for Plasma Ca^2+ (mmol/l) 8 hr: 8 hr after single oral dose 30 μmol/kg; for Plasma Ca^2+ (mmol/l) 24 hr: 24 hr after single oral dose 30 μmol/kg
Method: The compound of the present invention was administered to rats so as to examine the effects of the compound on the plasma calcium ion level and serum PTH level. The test was performed by orally administering single dose of the compound of the invention or a control compound to normal male SD rats with six animals in each group.
To the group 1 was administered as a control a 10% cyclodextrin aqueous solution in a dose of 2.5 ml/kg. To the group 2 was administered as a reference (R)-N-(3-(2-chlorophenyl)propyl)-1-(3-methoxyphenyl)ethylamine (KRN568) dissolved in a 10% cyclodextrin aqueous solution in a dose of 30 μmol/kg. To the group 3 was administered the compound of the present invention dissolved in a 10% cyclodextrin aqueous solution in a dose of 30 μmol/kg, provided that 1% sodium-CMC aqueous solution was used in place of 10% cyclodextrin aqueous solution for the compounds marked with ** in Table 2.
Blood of each rat was collected from the tail tip before the administration and 30 minutes and 1, 2, 4, 8 and 24 hours thereafter (or at the time indicated in Table 2), and the plasma Ca^2+ level and serum PTH level were measured. The data of the serum PTH level were statistically processed by the multiple comparison analysis in accordance with Steel's calibration by using the group 1 as the control.

[3] = vehicle 10% cyclodextrin (** 1% sodium-CMC)

SMILES | EC50 [1] | Plasma Ca^2+ (mmol/l) 1 hr [2, 3] | Plasma Ca^2+ (mmol/l) 2 hr [2, 3] | Plasma Ca^2+ (mmol/l) 4 hr [2, 3] | Plasma Ca^2+ (mmol/l) 8 hr [2, 3] | Plasma Ca^2+ (mmol/l) 24 hr [2, 3] | Plasma Ca^2+ (mmol/l) 31 hr (footnote *a, 48 hr column) ([2]; 31 hr after single oral dose 30 μmol/kg, 1% sodium-CMC) | Plasma Ca^2+ (mmol/l) 0 hr ([2]; 0 hr = before oral administration of 30 μmol/kg, vehicle 10% cyclodextrin (** 1% sodium-CMC))
C[C@@H](NCCCCCSc1ccc(Cl)cc1)c1cccc2ccccc12 [Compound K-2027, N-{5-[(4-chlorophenyl)thio]pentyl}-N-[(1R)-1-(1-naphthyl)ethyl]amine] | 0.39 µM | 1.197 mmol/L | 1.102 mmol/L | 0.995 mmol/L | 1.048 mmol/L | 1.363 mmol/L |  | 
C[C@@H](NCCCCCSc1ccc(F)cc1)c1cccc2ccccc12 [Compound K-2052, N-{5-[(4-fluorophenyl)thio]pentyl}-N-[(1R)-1-(1-naphthyl)ethyl]amine] | 5.7 µM | 1.283 mmol/L | 1.187 mmol/L | 1.087 mmol/L | 1.185 mmol/L |  |  | 
C[C@@H](NCCCCSc1cccc(C(F)(F)F)c1)c1cccc2ccccc12 [Compound K-2087, N-[(1R)-1-(1-naphthyl)ethyl]-N-(4-{[3-(trifluoromethyl)phenyl]thio}butyl)amine] | 0.087 µM | 1.325 mmol/L | 1.243 mmol/L | 1.197 mmol/L | 1.255 mmol/L |  |  | 
C[C@@H](NCCCSc1ccc(C(F)(F)F)cc1)c1cccc2ccccc12 [Compound K-2240, N-[(1R)-1-(1-naphthyl)ethyl]-N-(3-{[4-(trifluoromethyl)phenyl]thio}propyl)amine] | 0.36 µM | 1.302 mmol/L | 1.272 mmol/L | 1.175 mmol/L | 1.230 mmol/L |  |  | 
C[C@@H](NCCC(=O)N(Cc1ccccc1)Cc1ccc(Cl)cc1)c1cccc2ccccc12 [Compound K-2247, N1-benzyl-N1-(4-chlorobenzyl)-3-{[(1R)-1-(1-naphthyl)ethyl]amino}propanamide] | 0.13 µM | 1.378 mmol/L | 1.298 mmol/L | 1.175 mmol/L | 1.217 mmol/L |  |  | 
C[C@@H](NCCC(=O)N(Cc1ccccc1)Cc1ccc(Cl)c(Cl)c1)c1cccc2ccccc12 [Compound K-2250, N1-benzyl-N1-(3,4-dichloro-benzyl)-3-{[(1R)-1-(1-naphthyl)ethyl]amino}propanamide] | 0.076 µM | 1.327 mmol/L | 1.225 mmol/L | 1.122 mmol/L | 1.203 mmol/L |  |  | 
C[C@@H](NCCC(=O)N(Cc1ccc(Cl)cc1)Cc1ccccc1Cl)c1cccc2ccccc12 [Compound K-2262, N1-(2-chlorobenzyl)-N1-(4-chlorobenzyl)-3-{[(1R)-1-(1-naphthyl)ethyl]amino}propanamide] | 0.084 µM | 1.390 mmol/L | 1.260 mmol/L | 1.138 mmol/L | 1.142 mmol/L |  |  | 
C[C@@H](NCCCCSc1ccc(F)cc1)c1cccc2ccccc12 [Compound K-2263, N-{4-[(4-fluorophenyl)thio]butyl}-N-[(1R)-1-(1-naphthyl)ethyl]amine] | 0.11 µM | 1.273 mmol/L | 1.237 mmol/L | 1.212 mmol/L | 1.308 mmol/L |  |  | 
C[C@@H](NCCC(=O)N(Cc1ccc(C(F)(F)F)cc1)Cc1ccc(Cl)c(Cl)c1)c1cccc2ccccc12 [Compound K-2264, N1-(3,4-dichlorobenzyl)-N1-[(4-trifluoromethyl)benzyl]-3-{[(1R)-1-(1-naphthyl)ethyl]-amino}propanamide] | 0.016 µM | 1.335 mmol/L | 1.203 mmol/L | 1.013 mmol/L | 0.998 mmol/L | 1.182 mmol/L | 1.240*^a mmol/l | 
C[C@@H](NCCC(=O)N(Cc1ccc(Cl)c(Cl)c1)Cc1ccc(Cl)c(Cl)c1)c1cccc2ccccc12 [Compound K-2265, N1,N1-di(3,4-dichlorobenzyl)-3-{[(1R)-1-(1-naphthyl)ethyl]amino}propanamide] | 0.061 µM | 1.430 mmol/L | 1.363 mmol/L | 1.260 mmol/L | 1.218 mmol/L |  |  | 
C[C@@H](NCCC(=O)N(Cc1ccc(Cl)cc1)Cc1ccc(C(F)(F)F)cc1)c1cccc2ccccc12 [Compound K-2266, N1-(4-chlorobenzyl)-N1-[(4-trifluoromethyl)benzyl]-3-{[(1R)-1-(1-naphthyl)ethyl]amino}propanamide] | 0.036 µM | 1.368 mmol/L | 1.222 mmol/L | 1.065 mmol/L | 1.045 mmol/L | 1.370 mmol/L |  | 1.417 mmol/L
C[C@@H](NCCC(=O)N(Cc1ccc(Cl)cc1)Cc1ccc(Cl)c(Cl)c1)c1cccc2ccccc12 [Compound K-2267, N1-(4-chlorobenzyl)-N1-(3,4-dichlorobenzyl)-3-{[(1R)-1-(1-naphthyl)ethyl]amino}propanamide] | 0.014 µM | 1.347 mmol/L | 1.212 mmol/L | 1.027 mmol/L | 1.022 mmol/L | 1.312 mmol/L |  | 
COc1cccc(SCCCCN[C@H](C)c2cccc3ccccc23)c1 [Compound K-2269, N-{4-[(3-methoxyphenyl)thio]butyl}-N-[(1R)-1-(1-naphthyl)ethyl]amine] | 0.071 µM | 1.152 mmol/L | 1.140 mmol/L | 1.097 mmol/L | 1.173 mmol/L |  |  | 
COc1ccc(CN(Cc2ccc(OC)cc2)C(=O)CCN[C@H](C)c2cccc3ccccc23)cc1 [Compound K-2270, N1,N1-di(4-methoxybenzyl)-3-{[(1R)-1-(1-naphthyl)ethyl]amino}propanamide] | 0.14 µM | 1.355 mmol/L | 1.238 mmol/L | 1.088 mmol/L | 1.175 mmol/L |  |  | 
